Where two headings read alike, the source gives them in different places. Values belong to the compound of their own block, whether it stands above or below them.
Key:
[1] = compared with parent peptide
[2] = system: complement activation initiated via the classical pathway; experiment: ELISA of immune complex-induced complement activation (classical pathway) in human plasma; assay type: biochemical
Protocol: Each peptide was dissolved in water, and its concentration was determined by Nanodrop using the absorbance at 280 nm. […] The percent inhibition was plotted against the peptide concentration, and the resulting data set was fitted to the logistic dose-response function to obtain IC50 values (FIG. 4).

[3] = Plasma protein binding by rapid equilibrium dialysis (RED); assay type: in vitro ADME; details: human, 37° C.; for fraction unbound at 24 h, 5 μM: peptide 5 μM; for fraction unbound at 24 h, 10 μM: peptide 10 μM
Protocol: A rapid equilibrium dialysis (RED) device with inserts (MWCO 8 K) was used (Thermo Scientific). C3-depleted serum (product no. A314) was purchased from Complement Technology, Tyler, Tex. Purified C3 (Complement Technology, A113c) was added to C3-depleted serum at a defined, physiologically relevant concentration (5 μM) to maintain the sample matrix and inhibitor-target ratio in comparative experiments (referred to as C3-positive serum).
Equilibrium dialysis using RED device was performed to determine the plasma protein binding. The inserts were soaked in water for 10 min before discarding the water (twice), and then used immediately (Waters et al., 2008, J. Pharm. Sci. 97, 4586). A mixture of 90 μL C3-depleted or C3-positive serum and 10 μL compstatin sample (5 or 10 μM) in PBS buffer (10% DMSO, 0.5% Tween 20, 0.2% sodium azide) was placed in the plasma chamber, and 300 μL PBS buffer (1% DMSO and 0.05% Tween 20) was placed in the buffer chamber. The final DMSO concentration of the dialysis system was 1%. The plate was covered with a sealing tape and incubated at 37° C. on an orbital shaker (200 rpm) for 24 h. Each sample was analyzed at least twice.
A 50-μL aliquot of each post-dialysis sample from both the plasma and buffer chambers was pipetted into separate LoBind tubes (Eppendorf). The samples from plasma chambers were diluted with 50 μL PBS, while samples from buffer chambers were diluted with C3-depleted, or C3 positive serum (matrix match). All samples were diluted to 100 μL using 4% H3PO4 to dissociate the peptides. […] The eluent was injected into the UPLC-HDMS system consisting of an online ACQUITY UPLC (Waters BEH C18 column, 130 Å, 1.7 μm, 2.1 mm×150 mm) coupled to a SYNAPT G2-S HDMS instrument equipped with an ESI source (capillary voltage was set to 3.2 kV, the cone voltage to 30 V and the source temperature to 120° C.). MS peak areas of the peptide were determined by integration for the quantification (Qu et al., 2013, supra). The unbound fraction of the peptide in plasma (% free) was calculated from the ratio of the buffer side response to the plasma side response. The bound fraction of the compound was calculated as follows: % bound=100−% free.

baboon albumin = experiment: SPR of albumin binding to immobilized ABM2-Cp20 (baboon albumin); details: baboon albumin 6.3-100 μM over immobilized biotinylated ABM2-Cp20; read-out: Apparent binding affinity
Protocol: Streptavidin was immobilized on all flow cells of CM5 sensor chips (GE Healthcare) using standard amine coupling under 30° C. […] Sets of five increasing concentrations (6.3-100 μM) of albumin from different species (human, mouse, bovine, rabbit and baboon) were injected over the chip surface (FIG. 2). Data were recorded at 25° C. using PBS-T (10 mM sodium phosphate, 150 mM NaCl, 0.005% Tween-20, pH 7.4) as running buffer. Data were processed in Scrubber (v2.0c; Bio-Logic Software, Campbell, Australia); the signals from an untreated flow cell and buffer blank injections were subtracted. Apparent binding affinities (KD app) were calculated by fitting the steady state responses to a single-binding-site model.

[4] = biological target: human serum albumin (HSA) (Homo sapiens, UniProt P02768); experiment: SPR competition between immobilized ABM2-Cp20 and soluble ibuprofen for HSA; assay type: binding; details: concluded from ibuprofen (site II ligand) competition
human serum albumin (HSA), sequence (P02768 25-609): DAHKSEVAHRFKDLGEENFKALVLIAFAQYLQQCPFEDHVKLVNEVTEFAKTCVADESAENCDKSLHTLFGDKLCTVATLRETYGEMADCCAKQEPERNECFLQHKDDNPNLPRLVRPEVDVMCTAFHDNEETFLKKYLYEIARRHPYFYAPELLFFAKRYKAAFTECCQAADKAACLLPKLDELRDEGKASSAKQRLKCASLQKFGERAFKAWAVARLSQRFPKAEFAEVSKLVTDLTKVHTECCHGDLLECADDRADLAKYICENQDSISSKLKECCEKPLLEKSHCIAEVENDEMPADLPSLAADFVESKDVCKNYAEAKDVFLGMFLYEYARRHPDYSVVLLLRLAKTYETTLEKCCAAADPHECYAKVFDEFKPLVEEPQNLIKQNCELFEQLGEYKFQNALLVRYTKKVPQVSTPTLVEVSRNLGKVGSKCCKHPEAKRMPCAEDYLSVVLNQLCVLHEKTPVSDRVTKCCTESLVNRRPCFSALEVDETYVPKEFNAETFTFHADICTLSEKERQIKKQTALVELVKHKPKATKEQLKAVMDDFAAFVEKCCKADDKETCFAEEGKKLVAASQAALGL
Protocol: Data were recorded at 25° C. using PBS-T (10 mM sodium phosphate, 150 mM NaCl, 0.005% Tween-20, pH 7.4) as running buffer, and untreated flow cells were used as a reference surface.

C3b = biological target: T1, C3b (Homo sapiens, UniProt P01024); experiment: SPR single-cycle kinetic analysis of compstatin analogs on immobilized C3b; details: C3b surface 3000-5000 RU, 25° C., PBS-T, 1:1 binding model
T1 construct: a two-chain molecule consisting of a β chain (residues 1 to about 645) and an α-chain (residues 650-1,641)
T1 sequence (P01024 23-667 limits assumed): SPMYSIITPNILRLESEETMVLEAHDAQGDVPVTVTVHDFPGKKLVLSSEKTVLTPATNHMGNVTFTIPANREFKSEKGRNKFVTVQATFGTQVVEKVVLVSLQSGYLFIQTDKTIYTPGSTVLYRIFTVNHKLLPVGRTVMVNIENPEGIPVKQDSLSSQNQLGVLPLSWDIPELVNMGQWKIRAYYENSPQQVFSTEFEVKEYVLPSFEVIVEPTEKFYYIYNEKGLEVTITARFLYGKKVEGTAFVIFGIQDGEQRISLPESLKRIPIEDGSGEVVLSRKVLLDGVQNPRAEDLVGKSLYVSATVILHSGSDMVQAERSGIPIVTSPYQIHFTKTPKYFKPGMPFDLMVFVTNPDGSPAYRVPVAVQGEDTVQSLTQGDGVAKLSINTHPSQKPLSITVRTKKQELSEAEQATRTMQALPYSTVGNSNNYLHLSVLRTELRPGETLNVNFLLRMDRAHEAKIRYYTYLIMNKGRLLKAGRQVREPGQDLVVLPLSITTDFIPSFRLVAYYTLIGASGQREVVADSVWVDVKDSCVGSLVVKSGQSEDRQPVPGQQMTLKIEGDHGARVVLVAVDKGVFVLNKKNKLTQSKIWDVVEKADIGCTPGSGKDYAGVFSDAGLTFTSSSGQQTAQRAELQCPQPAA
T1 sequence (P01024 749-1663 partner limits assumed): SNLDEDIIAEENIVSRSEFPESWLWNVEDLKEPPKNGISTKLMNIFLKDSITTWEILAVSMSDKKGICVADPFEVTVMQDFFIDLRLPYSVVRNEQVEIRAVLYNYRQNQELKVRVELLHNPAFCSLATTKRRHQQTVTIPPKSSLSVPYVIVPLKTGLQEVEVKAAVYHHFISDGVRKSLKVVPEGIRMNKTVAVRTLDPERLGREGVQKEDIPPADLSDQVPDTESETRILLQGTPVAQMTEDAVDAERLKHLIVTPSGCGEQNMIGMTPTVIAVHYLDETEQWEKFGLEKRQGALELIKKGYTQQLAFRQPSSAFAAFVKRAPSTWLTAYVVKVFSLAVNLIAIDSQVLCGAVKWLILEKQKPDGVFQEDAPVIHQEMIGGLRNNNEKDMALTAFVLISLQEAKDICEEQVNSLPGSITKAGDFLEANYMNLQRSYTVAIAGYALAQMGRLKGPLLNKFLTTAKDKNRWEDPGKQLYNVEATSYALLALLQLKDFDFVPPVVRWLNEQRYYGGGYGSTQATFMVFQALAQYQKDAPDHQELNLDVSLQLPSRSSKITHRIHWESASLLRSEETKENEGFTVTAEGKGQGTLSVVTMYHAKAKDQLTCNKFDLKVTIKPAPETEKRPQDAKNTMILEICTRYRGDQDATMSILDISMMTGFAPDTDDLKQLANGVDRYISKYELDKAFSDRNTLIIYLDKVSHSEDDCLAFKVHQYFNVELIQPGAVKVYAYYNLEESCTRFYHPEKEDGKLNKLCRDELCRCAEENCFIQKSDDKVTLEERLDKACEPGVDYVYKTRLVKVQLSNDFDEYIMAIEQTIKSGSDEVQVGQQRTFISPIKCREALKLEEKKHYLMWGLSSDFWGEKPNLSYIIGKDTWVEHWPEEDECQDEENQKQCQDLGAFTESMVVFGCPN
Protocol: Individual injections within a cycle were 2 min long with a 5-min dissociation between injections. After the end of the last injection, a 40-min dissociation time was allowed. […] Each assay was performed at least twice.

[5] = NHP; cited from earlier work
C3 = C3 (Homo sapiens, UniProt P01024); details: versus earlier compstatin analogs, backbone N-methylation; cited from earlier work
C3, sequence (P01024 23-1663): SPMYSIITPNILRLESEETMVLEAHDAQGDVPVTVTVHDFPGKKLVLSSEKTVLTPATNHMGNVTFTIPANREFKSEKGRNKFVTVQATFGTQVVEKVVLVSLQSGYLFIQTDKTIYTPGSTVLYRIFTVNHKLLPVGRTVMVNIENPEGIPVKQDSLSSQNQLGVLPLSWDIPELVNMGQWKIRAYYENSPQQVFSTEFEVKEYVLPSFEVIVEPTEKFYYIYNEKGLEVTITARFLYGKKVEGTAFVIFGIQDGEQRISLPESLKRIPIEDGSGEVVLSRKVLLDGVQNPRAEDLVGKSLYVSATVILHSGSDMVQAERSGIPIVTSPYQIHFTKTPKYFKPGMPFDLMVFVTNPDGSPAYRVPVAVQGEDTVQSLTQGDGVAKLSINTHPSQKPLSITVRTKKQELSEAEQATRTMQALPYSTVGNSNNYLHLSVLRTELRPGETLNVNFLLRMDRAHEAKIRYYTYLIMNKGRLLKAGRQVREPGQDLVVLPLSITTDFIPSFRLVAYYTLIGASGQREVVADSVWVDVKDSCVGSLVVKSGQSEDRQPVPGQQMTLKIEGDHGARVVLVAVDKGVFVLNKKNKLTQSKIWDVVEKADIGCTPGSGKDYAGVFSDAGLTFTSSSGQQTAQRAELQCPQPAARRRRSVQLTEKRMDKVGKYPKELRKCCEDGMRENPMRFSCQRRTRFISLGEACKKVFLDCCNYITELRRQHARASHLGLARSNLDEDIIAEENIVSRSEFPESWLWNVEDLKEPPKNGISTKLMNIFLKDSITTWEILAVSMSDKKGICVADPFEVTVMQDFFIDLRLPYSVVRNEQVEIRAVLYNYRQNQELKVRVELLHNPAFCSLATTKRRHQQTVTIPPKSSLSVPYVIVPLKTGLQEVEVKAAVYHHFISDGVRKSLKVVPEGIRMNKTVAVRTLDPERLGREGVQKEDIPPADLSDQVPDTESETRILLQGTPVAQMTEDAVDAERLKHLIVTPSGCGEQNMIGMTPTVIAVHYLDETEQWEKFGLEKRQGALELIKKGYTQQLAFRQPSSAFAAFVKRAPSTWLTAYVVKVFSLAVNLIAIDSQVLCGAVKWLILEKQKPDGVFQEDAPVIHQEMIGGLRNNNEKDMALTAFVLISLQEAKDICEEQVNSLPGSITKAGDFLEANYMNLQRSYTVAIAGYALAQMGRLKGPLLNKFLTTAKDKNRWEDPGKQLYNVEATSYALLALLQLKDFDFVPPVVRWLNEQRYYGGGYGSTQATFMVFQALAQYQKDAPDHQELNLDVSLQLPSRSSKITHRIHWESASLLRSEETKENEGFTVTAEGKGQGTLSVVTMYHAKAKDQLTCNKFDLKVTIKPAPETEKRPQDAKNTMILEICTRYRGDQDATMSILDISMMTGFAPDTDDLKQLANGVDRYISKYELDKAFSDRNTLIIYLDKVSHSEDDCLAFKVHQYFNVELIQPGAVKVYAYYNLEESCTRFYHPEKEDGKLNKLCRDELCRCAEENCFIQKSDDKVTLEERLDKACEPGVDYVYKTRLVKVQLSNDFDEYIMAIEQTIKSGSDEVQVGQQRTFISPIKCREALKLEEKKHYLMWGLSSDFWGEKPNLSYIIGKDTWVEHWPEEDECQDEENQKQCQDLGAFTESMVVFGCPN

[6] = in human; cited from earlier work
human serum albumin = human serum albumin (Homo sapiens, UniProt P02768); details: cited from earlier work
human serum albumin, sequence (P02768 25-609): as the sequence (P02768 25-609) above

[7] = C3-depleted serum with 5 μM purified C3, 24 h, read-out: C3-positive serum % bound
[8] = C3-depleted serum, 24 h, read-out: C3-depleted serum % bound (converted)
[9] = C3-depleted serum with 5 μM purified C3, 24 h, read-out: C3-positive serum % bound (converted)

SMILES: CC[C@H](C)[C@H](NC(=O)CCCCCOP(=O)(O)OC1CCC(c2ccccc2)(c2ccccc2)CC1)C(=O)N[C@H]1CSSC[C@@H](C(=O)N(C)[C@H](C(N)=O)[C@@H](C)CC)NC(=O)[C@H](CCCNC(=N)N)NC(=O)[C@H](Cc2c[nH]cn2)NC(=O)[C@H](C)NC(=O)CN(C)C(=O)[C@H](Cc2c[nH]c3ccccc23)NC(=O)[C@H](CC(=O)O)NC(=O)[C@H](CCC(N)=O)NC(=O)[C@H](Cc2cn(C)c3ccccc23)NC(=O)[C@H](C(C)C)NC1=O [ABM2-Cp20, ABM2-Ile-[Cys-Val-Trp(Me)-Gln-Asp-Trp-Sar-Ala-His-Arg-Cys]-mIle-NH2]
solubility [1]: lower solubility
IC50 [2]: 170 ± 110 nM
fraction unbound at 24 h, 5 μM [3, 7]: < 0.01
fraction unbound at 24 h, 5 μM [3, 8]: < 0.01
fraction unbound at 24 h, 10 μM [3, 9]: < 0.01
fraction unbound at 24 h, 10 μM [3, 8]: < 0.01
Kd (baboon albumin): 106000 ± 3000 nM
albumin binding site [4]: binds primarily to site II

IC50 [2]: 80 ± 30 nM
kd (C3b): 0.5 ± 0.2 10^−3 s^−1
SMILES: CC[C@H](C)[C@H](NC(=O)[C@@H](Cc1ccc(O)cc1)NC(=O)CCCCCOP(=O)(O)OC1CCC(c2ccccc2)(c2ccccc2)CC1)C(=O)N[C@H]1CSSC[C@@H](C(=O)N(C)[C@H](C(N)=O)[C@@H](C)CC)NC(=O)[C@H](CCCNC(=N)N)NC(=O)[C@H](Cc2c[nH]cn2)NC(=O)[C@H](C)NC(=O)CN(C)C(=O)[C@H](Cc2c[nH]c3ccccc23)NC(=O)[C@H](CC(=O)O)NC(=O)[C@H](CCC(N)=O)NC(=O)[C@H](Cc2cn(C)c3ccccc23)NC(=O)[C@H](C(C)C)NC1=O [ABM2-Cp40]

SMILES: CC[C@H](C)[C@H](NC(C)=O)C(=O)N[C@H]1CSSC[C@@H](C(=O)N(C)[C@H](C(N)=O)[C@@H](C)CC)NC(=O)[C@H](CCCNC(=N)N)NC(=O)[C@H](Cc2c[nH]cn2)NC(=O)[C@H](C)NC(=O)CN(C)C(=O)[C@H](Cc2c[nH]c3ccccc23)NC(=O)[C@H](CC(=O)O)NC(=O)[C@H](CCC(N)=O)NC(=O)[C@H](Cc2cn(C)c3ccccc23)NC(=O)[C@H](C(C)C)NC1=O [Cp20, Ac-Ile-[Cys-Val-Trp(Me)-Gln-Asp-Trp-Sar-Ala-His-Arg-Cys]-mIle-NH2, reference compound]
IC50 [2]: 260 ± 120 nM
kd (C3b): 6.7 ± 2.9 10^−3 s^−1
kon (C3b; read-out: ka): 2.3e+06 ± 700000 M⁻¹ s⁻¹
fraction unbound at 24 h, 5 μM [3, 7]: < 0.01
fraction unbound at 24 h, 5 μM [3, 8]: 0.93
fraction unbound at 24 h, 10 μM [3, 9]: 0.16
fraction unbound at 24 h, 10 μM [3, 8]: 0.97
half-life [5]: 9 h
improved affinity (C3): 10 fold

kd (C3b): 1.3 ± 0.2 10^−3 s^−1
SMILES: CC[C@H](C)[C@H](NC(=O)[C@H](N)Cc1ccc(O)cc1)C(=O)N[C@H]1CSSC[C@@H](C(=O)N(C)[C@H](C(N)=O)[C@@H](C)CC)NC(=O)[C@H](CCCNC(=N)N)NC(=O)[C@H](Cc2c[nH]cn2)NC(=O)[C@H](C)NC(=O)CN(C)C(=O)[C@H](Cc2c[nH]c3ccccc23)NC(=O)[C@H](CC(=O)O)NC(=O)[C@H](CCC(N)=O)NC(=O)[C@H](Cc2cn(C)c3ccccc23)NC(=O)[C@H](C(C)C)NC1=O [Cp40, (D)Tyr-Ile-[Cys-Val-Trp(Me)-Gln-Asp-Trp-Sar-Ala-His-Arg-Cys]-mIle-NH2, reference compound]
half-life [5]: 12 h

SMILES: O=C([O-])CN(CCN(CC(=O)[O-])CC(COP(=O)([O-])OC1CCC(c2ccccc2)(c2ccccc2)CC1)N(CC(=O)[O-])CC(=O)[O-])CC(=O)[O-].[Gd+3].[Na+].[Na+].[Na+] (centres unmarked) [MS-325, gadofosveset trisodium]
intravascular half-life [6]: 18.5 ± 3 h
Kd (human serum albumin): 164000 nM
